Laboratory results taken from paper PMC5949604.

Assay: aziridine aldehyde dimer (S-serine-type dimer 3, parent) + tBuNC multicomponent (disrupted Ugi) head-to-tail macrocyclisation of N-terminal Pro peptides; linker inserts CH-CH-N between Pro N and C-terminal C=O (forms Pro N-C bond and C-terminal acyl aziridine N-C(=O) bond)
Settings: the molecule shown is the open-chain precursor, TFE, 100.0 mM

Molecule `CC(C)C[C@H](NC(=O)CNC(=O)[C@]1(C)CCCN1)C(=O)NCC(=O)N[C@H](Cc1ccccc1)C(=O)O` [H-L-alpha-MePro-Gly-Leu-Gly-D-Phe-OH] has a ring closure, isolated yield (18-membered ring) of 0%.
With `CC(C)C[C@H](NC(=O)CNC(=O)C[C@@H]1CCCN1)C(=O)NCC(=O)N[C@H](Cc1ccccc1)C(=O)O` [H-L-beta-homoPro-Gly-Leu-Gly-D-Phe-OH] the ring closure, isolated yield (19-membered ring) was 0%.
Molecule `CC(C)C[C@H](NC(=O)[C@H](COC(C)(C)C)NC(=O)C[C@@H]1CCCN1)C(=O)N[C@@H](Cc1ccc(OC(C)(C)C)cc1)C(=O)N[C@@H](Cc1ccccc1)C(=O)O` [H-L-beta-homoPro-Ser(tBu)-Leu-Tyr(tBu)-Phe-OH] has a ring closure, isolated yield (19-membered ring) of 0%.
Molecule `CC(C)C[C@H](NC(=O)[C@H](C)NC(=O)[C@@H]1CCCN1)C(=O)NCC(=O)N[C@@H](Cc1ccccc1)C(=O)O` [H-Pro-Ala-Leu-Gly-Phe-OH] has a ring closure, isolated yield (18-membered ring, 4.0 h) of 12%.
Work on `CC(C)C[C@@H](NC(=O)CNC(=O)[C@@H]1CCCN1)C(=O)NCC(=O)N[C@H](CCCCNC(=O)OC(C)(C)C)C(=O)O` [H-Pro-Gly-D-Leu-Gly-D-Lys(Boc)-OH] yielded a ring closure, isolated yield (18-membered ring, 6.0 h) of 0%.
Work on `CC(C)C[C@@H](NC(=O)CNC(=O)[C@@H]1CCCN1)C(=O)NCC(=O)N[C@@H](Cc1ccccc1)C(=O)O` [H-Pro-Gly-D-Leu-Gly-Phe-OH] yielded a ring closure, isolated yield (18-membered ring, 4.0 h) of 28%.
Molecule `CC(C)C[C@H](NC(=O)CNC(=O)[C@@H]1CCCN1)C(=O)N[C@@H](C)C(=O)N[C@@H](Cc1ccccc1)C(=O)O` [H-Pro-Gly-Leu-Ala-Phe-OH] has a ring closure, isolated yield (18-membered ring, 6.0 h) of 9%.
Molecule `CC(C)C[C@H](NC(=O)CNC(=O)[C@@H]1CCCN1)C(=O)NCC(=O)N[C@H](Cc1ccccc1)C(=O)O` [H-Pro-Gly-Leu-Gly-D-Phe-OH] has a ring closure, isolated yield (18-membered ring, 4.0 h) of 0%.
With `CC(C)C[C@H](NC(=O)CNC(=O)[C@@H]1CCCN1)C(=O)NCC(=O)N[C@@H](CCCCNC(=O)OC(C)(C)C)C(=O)O` [H-Pro-Gly-Leu-Gly-Lys(Boc)-OH] the ring closure, isolated yield (18-membered ring, 6.0 h) was 23%.
With `CC(C)C[C@H](NC(=O)CNC(=O)[C@@H]1CCCN1)C(=O)NCC(=O)N[C@@H](Cc1ccccc1)C(=O)O` [H-Pro-Gly-Leu-Gly-Phe-OH] the ring closure, isolated yield (18-membered ring, 4.0 h) was 34%.
With `CC(C)C[C@H](NC(=O)CNC(=O)[C@@H]1CCCN1)C(=O)N[C@@H](CCCCNC(=O)OC(C)(C)C)C(=O)O` [H-Pro-Gly-Leu-Lys(Boc)-OH] the ring closure, isolated yield (15-membered ring, 6.0 h) was 0%.
`O=C(CNC(=O)[C@@H]1CCCN1)N[C@@H](Cc1ccccc1)C(=O)O` [H-Pro-Gly-Phe-OH] gave a ring closure, isolated yield (12-membered ring, 4.0 h) of 0%.
For `CC(C)C[C@H](NC(=O)[C@H](CC(C)C)N(C)C(=O)[C@@H]1CCCN1)C(=O)NCC(=O)N[C@@H](Cc1ccccc1)C(=O)O` [H-Pro-N-Me-Leu-Leu-Gly-Phe-OH], the ring closure, isolated yield (18-membered ring) was 0%.
`CC(C)C[C@H](NC(=O)CN(C)C(=O)[C@@H]1CCCN1)C(=O)NCC(=O)N[C@@H](Cc1ccccc1)C(=O)O` [H-Pro-Sar-Leu-Gly-Phe-OH] gave a ring closure, isolated yield (18-membered ring) of 0%.
In the case of `CC(C)C[C@H](NC(=O)[C@H](COC(C)(C)C)NC(=O)[C@@H]1CCCN1)C(=O)NCC(=O)N[C@@H](Cc1ccccc1)C(=O)O` [H-Pro-Ser(tBu)-Leu-Gly-Phe-OH], the ring closure, isolated yield (18-membered ring, 4.0 h) is reported as 49%.
`CC(C)C[C@H](NC(=O)[C@H](COC(C)(C)C)NC(=O)[C@@H]1CCCN1)C(=O)N[C@@H](Cc1ccc(OC(C)(C)C)cc1)C(=O)N[C@@H](Cc1ccccc1)C(=O)O` [H-Pro-Ser(tBu)-Leu-Tyr(tBu)-Phe-OH] gave a ring closure, isolated yield (18-membered ring, 4.0 h) of 22%.
